Test results: US6251897A, “6-phenyltetrahydro-1,3-oxazin-2-one derivative and pharmaceutical composition containing the same” (Nikken Chemicals Co., LTD, priority 1996, dated 2001)

System: Type IV PDE
Experiment: PDE inhibitory activity, type IV isozyme (3H-cAMP hydrolysis)
Format: biochemical
Details: partially purified from rat neutrophils, 30° C., 30 minutes
Method: Type I, III, IV, and V PDE isozymes were prepared to study the PDE inhibitory activities and selectivities with the compound of the invention [Trends Pharmacol. Sci., 12, 19-27 (1992)]. Type I PDE was purchased from Sigma Corp. Type III, IV, and V PDE isozymes were partially purified from rats platelets (Type III and V) or neutrophils (Type IV). Each enzyme source was homogenized in a buffer (pH 6.5) containing 20 mM bisTris, 2 mM EDTA (ethylenediamine tetraacetate), 0.1 mM PMSF (phenylmethylsulfonyl fluoride), 5 mM 2-mercaptoethanol, 0.001 mM pepstatin, and 0.01 mM leupeptin and was centrifuged at 30,000×G for 30 minutes to obtain a supernatant, which was applied to an ion exchange column (Q-sepharose First Flow, Pharmacia Corp.) and was eluted with 0 to 1M sodium acetate. Partially purified isozymes were identified by observing the effects of conventional inhibitors.
Each PDE isozyme and the test compound dissolved in DMSO (dimethyl sulfoxide) were added to 50 mM Tris-HCl buffer containing 5 mM magnesium chloride. ^3 H-cAMP (for type III and IV PDE) or ^3 H-cGMP (for type I and V PDE) were added as substrates and were reacted at 30° C. for 30 minutes. The reaction was terminated by placing the test tube in boiling water of 100° C. for 5 minutes. The nucleotides formed by PDE were broken down by 5'-nucleotidase to ^3 H-adenosine or ^3 H-guanosine. The unreacted substrate and reaction product were separated through an ion-exchange column (QAE sephadex, Pharmacia Corp.) The eluted ^3 H-nucleoside was measured for its radioactivity by a liquid scintillation counter. The inhibiting activities of the compound of the present invention are shown by the IC50 value (M). Further, the inhibitory activities of the test samples against Type I, III, and V are 1/10 or less than that against type IV.

Structure (SMILES)	IC50
COc1ccc(C2CCNC(=O)O2)cc1O[C@H]1CC[C@H](c2ccccc2)CC1 (relative stereo) [Compound No. 78, 6-[4-methoxy-3-(trans-4-phenylcyclohexyloxy)phenyl]-3,4,5,6-tetrahydro-2H-1,3-oxazin-2-one]	1900 nM
COc1ccc(C2CCN(C)C(=O)O2)cc1O[C@H]1CC[C@H](c2ccccc2)CC1 (relative stereo) [Compound No. 79, 6-[4-methoxy-3-(trans-4-phenylcyclohexyloxy)phenyl]-3-methyl-3,4,5,6-tetrahydro-2H-1,3-oxazin-2-one]	1200 nM
COc1ccc([C@H]2OC(=O)NC[C@H]2c2ccccc2)cc1OC1CCCC1 (relative stereo) [Compound No. 91, rel-(5R,6S)-6-(3-cyclopentyloxy-4-methoxyphenyl)-5-phenyl-3,4,5,6-tetrahydro-2H-1,3-oxazin-2-one]	2700 nM
COc1ccc([C@@H]2OC(=O)NC[C@H]2c2ccccc2)cc1OC1CCCC1 (relative stereo) [Compound No. 92, rel-(5R,6R)-6-(3-cyclopentyloxy-4-methoxyphenyl)-5-phenyl-3,4,5,6-tetrahydro-2H-1,3-oxazin-2-one]	900 nM
CCCCOc1cc(C2CCNC(=O)O2)ccc1OC (centres unmarked) [Compound No. 3, 6-(3-butoxy-4-methoxyphenyl)-3,4,5,6-tetrahydro-2H-1,3-oxazin-2-one]	6800 nM
COc1ccc(C2(c3ccccc3)CCNC(=O)O2)cc1OC1CCCC1 (centres unmarked) [Compound No. 7, 6-(3-cyclopentyloxy-4-methoxyphenyl)-6-phenyl-3,4,5,6-tetrahydro-2H-1,3-oxazin-2-one]	4300 nM
COc1ccc(C2CCN(Cc3ccc4ccccc4n3)C(=O)O2)cc1OC1CCCC1 (centres unmarked) [Compound No. 12, 6-(3-cyclopentyloxy-4-methoxyphenyl)-3-(2-quinolylmethyl)-3,4,5 6-tetrahydro-2H-1,3-oxazin-2-one]	73 nM
COc1ccc(C2CCN(Cc3cccc4ccccc34)C(=O)O2)cc1OC1CCCC1 (centres unmarked) [Compound No. 13, 6-(3-cyclopentyloxy-4-methoxyphenyl)-3-(1-naphthylmethyl)-3,4,5,6-tetrahydro-2H-1 3-oxazin-2-one]	1700 nM
COc1ccc(C2CCN(Cc3ccc4ccccc4c3)C(=O)O2)cc1OC1CCCC1 (centres unmarked) [Compound No. 15, 6-(3-cyclopentyloxy-4-methoxyphenyl)-3-(2-naphthylmethyl)-3,4,5,6-tetrahydro-2H-1,3-oxazin-2-one]	980 nM
CCCCN1CCC(c2ccc(OC)c(OC3CCCC3)c2)OC1=O (centres unmarked) [Compound No. 17, 3-butyl-6-(3-cyclopentyloxy-4-methoxyphenyl)-3,4,5,6-tetrahydro-2H-1,3-oxazin-2-one]	2100 nM
COc1ccc(C2CCN(C(=O)c3ccccc3)C(=O)O2)cc1OC1CCCC1 (centres unmarked) [Compound No. 18, 3-benzoyl-6-(3-cyclopentyloxy-4-methoxyphenyl)-3,4,5,6-tetrahydro-2H-1,3-oxazin-2-one]	410 nM
CCOC(=O)CN1CCC(c2ccc(OC)c(OC3CCCC3)c2)OC1=O (centres unmarked) [Compound No. 19, 6-(3-cyclopentyloxy-4-methoxyphenyl)-3-(ethoxycarbonylmethyl)-3,4,5,6-tetrahydro-2H-1,3-oxazin-2-one]	1800 nM
COc1ccc(C2(C)CCN(Cc3ccncc3)C(=O)O2)cc1OC1CCCC1 (centres unmarked) [Compound No. 22, 6-(3-cyclopentyloxy-4-methoxyphenyl)-6-methyl-3-(4-pyridylmethyl)-3,4,5,6-tetrahydro-2H-1,3-oxazin-2-one]	5900 nM
COc1ccc(C2(c3nccs3)CCNC(=O)O2)cc1OC (centres unmarked) [Compound No. 27, 6-(3,4-dimethoxyphenyl)-6-(2-thiazolyl)-3,4,5,6-tetrahydro-2H-1,3-oxazin-2-one]	21000 nM
COc1ccc(C2(c3cccs3)CCNC(=O)O2)cc1OC1CCCC1 (centres unmarked) [Compound No. 29, 6-(3-cyclopentyloxy-4-methoxyphenyl)-6-(2-thienyl)-3,4,5,6-tetrahydro-2H-1,3-oxazin-2-one]	3400 nM
CCCCC1(c2ccc(OC)c(OC3CCCC3)c2)CCNC(=O)O1 (centres unmarked) [Compound No. 30, 6-butyl-6-(3-cyclopentyloxy-4-methoxyphenyl)-3,4,5,6-tetrahydro-2H-1,3-oxazin-2-one]	9000 nM
COc1ccc(C2(c3nccs3)CCNC(=O)O2)cc1OC1CCCC1 (centres unmarked) [Compound No. 31, 6-(3-cyclopentyloxy-4-methoxyphenyl)-6-(2-thiazolyl)-3,4,5,6-tetrahydro-2H-1,3-oxazin-2-one]	4600 nM
COc1ccc(C2CCN(CCN3CCCCC3)C(=O)O2)cc1OC1CCCC1 (centres unmarked) [Compound No. 32, 6-(3-cyclopentyloxy-4-methoxyphenyl) -3-[2-(1-piperidyl)ethyl]-3,4,5,6-tetrahydro-2H-1,3-oxazin-2-one]	32000 nM

Structure (SMILES)	IC50
COc1ccc(C2CCN(CCN3CCOCC3)C(=O)O2)cc1OC1CCCC1 (centres unmarked) [Compound No. 33, 6-(3-cyclopentyloxy-4-methoxyphenyl)-3-[2-(4-morpholino)ethyl]-3,4,5,6-tetrahydro-2H-1,3-oxazin-2-one]	8800 nM
COc1ccc(C2CCN(Cc3c(C)c4ccccc4n3C(C)=O)C(=O)O2)cc1OC1CCCC1 (centres unmarked) [Compound No. 34, 3-(1-acetyl-3-methyl-2-indolylmethyl)-6-(3-cyclopentyloxy-4-methoxyphenyl)-3,4,5,6-tetrahydro-2H-1,3-oxazin-2-one]	860 nM
COc1ccc(C2CCN(Cc3ccco3)C(=O)O2)cc1OC1CCCC1 (centres unmarked) [Compound No. 35, 6-(3-cyclopentyloxy-4-methoxyphenyl)-3-(2-furylmethyl)-3,4,5,6-tetrahydro-2H-1,3-oxazin-2-one]	2000 nM
COc1ccc(C2(c3cccnc3)CCNC(=O)O2)cc1OC1CCCC1 (centres unmarked) [Compound No. 36, 6-(3-cyclopentyloxy-4-methoxyphenyl)-6-(3-pyridyl)-3,4,5,6-tetrahydro-2H-1,3-oxazin-2-one]	1600 nM
COc1ccc(C2CCN(Cc3cnccn3)C(=O)O2)cc1OC1CCCC1 (centres unmarked) [Compound No. 37, 6-(3-cyclopentyloxy-4-methoxyphenyl) -3-(2-pyrazinylmethyl)-3,4,5,6-tetrahydro-2H-1,3-oxazin-2-one]	4500 nM
COc1ccc(C2CCN(Cc3cccs3)C(=O)O2)cc1OC1CCCC1 (centres unmarked) [Compound No. 38, 6-(3-cyclopentyloxy-4-methoxyphenyl)-3-(2-thienylmethyl)-3,4.56-tetrahydro-2H-1,3-oxazin-2-one]	2200 nM
COc1ccc(C2(c3ccccn3)CCNC(=O)O2)cc1OC1CCCC1 (centres unmarked) [Compound No. 39, 6-(3-cyclopentyloxy-4-methoxyphenyl)-6-(2-pyridyl)-3,4,5,6-tetrahydro-2H-1,3-oxazin-2-one]	18000 nM
COc1ccc(C2CCNC(=O)O2)cc1OCCCCCc1ccccc1 (centres unmarked) [Compound No. 41, 6-[4-methoxy-3-(5-phenylpentyloxy)phenyl]-3,4,5,6-tetrahydro-2H-1,3-oxazin-2-one]	730 nM
COc1ccc(C2CCN(C)C(=O)O2)cc1OCCCCCc1ccccc1 (centres unmarked) [Compound No. 42, 6-[4-methoxy-3-(5-phenylpentyloxy)phenyl]-3-methyl-3,4,5,6-tetrahydro-2H-1,3-oxazin-2-one]	1000 nM
COc1ccc(C2CCN(C)C(=O)O2)cc1OCCc1ccccc1 (centres unmarked) [Compound No. 44, 6-(4-methoxy-3-phenethyloxyphenyl)-3-methyl-3,4,5,6-tetrahydro-2H-1,3-oxazin-2-one]	1500 nM
COc1ccc(C2(C)CCNC(=O)O2)cc1OCCCCCc1ccccc1 (centres unmarked) [Compound No. 45, 6-[4-methoxy-3-(5-phenylpentyloxy)phenyl]-6-methyl-3,4,5,6-tetrahydro-2H-1,3-oxazin-2-one]	260 nM
COc1ccc(C2(C)CCN(C)C(=O)O2)cc1OCCCCCc1ccccc1 (centres unmarked) [Compound No. 47, 3,6-dimethyl-6-[4-methoxy-3-(5-phenylpentyloxy)phenyl]-3,4,5,6-tetrahydro-2H-1,3-oxazin-2-one]	220 nM
COc1ccc(C2(C)CCN(C)C(=O)O2)cc1OCCc1ccccc1 (centres unmarked) [Compound No. 48, 3. 6-dimethyl-6-(4-methoxy-3-phenethyloxyphenyl)-3,4,5,6-tetrahydro-2H-1,3-oxazin-2-one]	700 nM
CCCCOc1cc(C2(C)CCNC(=O)O2)ccc1OC (centres unmarked) [Compound No. 52, 6-(3-butoxy-4-methoxyphenyl)-6-methyl-3,4,5,6-tetrahydro-2H-1,3-oxazin-2-one]	1400 nM
CCCCOc1cc(C2CCN(C)C(=O)O2)ccc1OC (centres unmarked) [Compound No. 53, 6-(3-butoxy-4-methoxyphenyl)-3-methyl-3,4,5,6-tetrahydro-2H-1,3-oxazin-2-one]	9100 nM
CCCCOc1cc(C2(C)CCN(C)C(=O)O2)ccc1OC (centres unmarked) [Compound No. 54, 6-(3-butoxy-4-methoxyphenyl)-3,6-dimethyl-3,4,5,6-tetrahydro-2H-1,3-oxazin-2-one]	2000 nM
COc1ccc(C2CCNC(=O)O2)cc1OCCc1ccccn1 (centres unmarked) [Compound No. 55, 6-[4-methoxy-3-[2-(2-pyridyl)ethoxy]phenyl]-3,4,5,6-tetrahydro-2H-1,3-oxazin-2-one]	1700 nM
